For series [1], the system named is bovine heart mitochondria deactivated by treatment with acetone (succinate oxidase activity). The series can be described thus: Mitochondrial respiration activating effect (succinate oxidase oxygen consumption). The format is biochemical. Conditions: 5 n mole added; 23° C.; succinate substrate; acetone-treated mitochondria. Here is the method: The effect of activating the respiration of bovine heart mitochondria deactivated by treatment with acetone was evaluated by the method of Lester and Fleischer (Biochim. Biophys. Acta, vol. 113, p. 519, 1966). The respiration activating effect was expressed in terms of oxygen consumption due to succinate oxidase activity, succinic acid being the substrate.
*The rate was measured at 23° C. using an oxygen electrode
apparatus (Gilson's model KIC). Composition of the reaction medium (2 ml)
0.2 M sucrose, 10 mM Trishydrochloric acid (pH 7.4), 20 mM KCl, 3 mM
MgCl2, 50 μM EDTA.2Na, 1.99 mg (as protein) acetonetreated
mitochondria, 50 μM potassium succinate, 0.2 mg cytochrome C, and 5
μl 1% Nikkol OP10 ® (polyoxyethylene octylphenyl ether; Produced b
Nikko Chemicals) solution of the test sample (in the case of the test
sample) or 5 μl 1% Nikkol OP10 ® (Polyoxyethylene octylphenyl
ether; Produced by Nikko Chemicals) (in the case of the control).

Series [2] has as its system SHRSP. The series can be described thus: Cerebral ischemia-protecting effect, carotid artery ligated on both sides. The series is classed as in vivo, rat. An excerpt: Spontaneously hypertensive rats showing a strong tendency to cerebral apoplexy (hereinafter abbreviated to SHRSP) (Okamoto et al., Circulation Res., vol. 34-35, pp. 1-143, 1974), were newly established in 1974. When the carotid artery is ligated on both sides, apoplectic symptoms such as convulsion fit, respiratory distress and coma, which lead to death (the incidence being 100%), are observed.
The time to the manifestation of the symptoms and the time to death were prolonged also by the administration of 100 mg/kg for 3 days or 35 mg/kg for 14 days.

Series [3] has as its system SHRSP. The series can be described thus: Cerebral apoplexy preventing effect. The series is classed as in vivo, rat. Here is the method:
The SHRSP, fed with high sodium chloride level, are liable to develop cerebral apoplexy (cerebral hemorrhage or hemorrhagic infarction) with high incidence. The compound of the invention (I, n=10) was administered in admixture with the diet to a group of 12 male SHRSP.
^1 8week-old male SHRSP
^2 14week-old male SHRSP
^3 Number of apoplectic cases/number of animals used.

In series [4] the test system is SHRSP. Put plainly: Improving effect on symptoms of cerebral apoplexy. Conditions: 100 mg/kg/day oral, 21 days after first symptom. The format is in vivo, rat. An excerpt:
SHRSP's were fed under sodium chloride loading as in Example 3. Upon manifestation of the first symptom, the sodium chloride loading was discontinued and at the same time oral administration of the compound of the invention (I, n=10) was commenced. After administration for 3 weeks, the dosed group was compared with the control group in respect of the severity of the symptoms. The severity was scored (0 for no symptoms to 5 for the severest) for each individual and the results were expressed in terms of the total score for the respective group. As shown by the results set forth in Table 4, the administration of the compound of the present invention alleviated the clinical symptoms after manifestation of the apoplexy. The body weight loss after the apoplexy was also depressed.

Series [5] relates to SHRSP. Put plainly: Antihypertensive action. The format is in vivo, rat. Conditions: 35 mg/kg daily oral. The text has this: | ^1 Each group consisted of 12 animals.
Another series relates to normal rat. Put plainly: Preventing effect against development of malignant hypertension (unilateral kidney excision, desoxycorticosterone acetate, 1% sodium chloride). Conditions: 50 mg/kg oral twice a day. The series is classed as in vivo. On the procedure:
The kidney of each normal rat was unilaterally excised, and desoxycorticosterone acetate (10 mg/kg) was administered subcutaneously once a week. The rats were given a 1% aqueous sodium chloride solution as drinking water. On the day of operation and thereafter, the compound of the invention (I, n=10) was orally administered at a dose of 50 mg/kg twice a day, and the above indexes of aggravation were determined.

The next series deals with normal rats. Put plainly: Protecting effect against heart failure (Adriamycin-induced), normal rats. The format is in vivo, rat. Conditions: Adriamycin 1 mg/kg/day i.p., compound 10 mg/kg/day oral, 10 days. Here is the method:
Adriamycin (1 mg/kg/day) was intraperitoneally administered to normal rats and, after 2 weeks, the compound of the invention (I, n=10) (10 mg/kg/day) was orally administered, and the cardiac functional state was examined electrocardiographically and biochemically. […] In addition, the tissue lactic acid level, an index of myocardinal energy state, was lowered.

Series [6] has as its system Spontaneously hypertensive rats. The series can be described thus: Protecting effect against heart failure (drug-induced cardiac insufficiency), spontaneously hypertensive rats. The format is in vivo, rat. Conditions: administration period 10 days.
The nature of series [7]: 2-week oral repeated dose toxicity (Reference Example 8). Conditions: gum arabic suspension, 100 mg/kg or 500 mg/kg daily for 2 weeks. The series is classed as in vivo. Here is the method:
The compound of the present invention (I, n=10) was suspended in a gum arabic solution and oraly administered consecutively for 2 weeks at a daily dose of 100 mg/kg or 500 mg/kg, and examination of general condition, urinalysis and blood examination were carried out during the course of administration. Histopathology was done at the termination of the administration.

[8] abbreviates: Experiment 2, 100 mg/kg/day, 3 days.
Where [9] appears, read: Experiment 3, 35 mg/kg/day, 14 days.

Two compounds from patent US4436753A, “Method for therapy of ischemic disease” (Takeda Chemical Industries, Ltd., priority 1979, dated 1984) can be followed below.

On to `COC1=C(OC)C(=O)C(CCCCCCCCCCCCCCCCCCO)=C(C)C1=O` [I (n = 18), 6-(18-hydroxyoctadecyl)-2,3-dimethoxy-5-methyl-1,4-benzoquinone], for which, in [1], the Oxygen consumption rate is listed as 44.5 ± 3.2 Oxygen (n atom)/minute/mg prot.

In the case of `COC1=C(OC)C(=O)C(CCCCCCCCCCO)=C(C)C1=O` [I (n = 10), 2,3-dimethoxy-5-methyl-6-(10-hydroxydecyl)-1,4-benzoquinone], the Oxygen consumption rate in [1] was 45.0 ± 3.7 Oxygen (n atom)/minute/mg prot. Further, the “Time to convulsion fit” value in the series with SHRSP [2] (Experiment 1, 15 mg/kg/day oral, 21 days) was determined as 119 ± 13 min; in the series with SHRSP [2] (setting [8]), 117 ± 15 min; in the series on SHRSP [2] (setting [9]), 93 ± 14 min. Also, the Time to death in the series on SHRSP [2] (setting [8]) was found to be 235 ± 27 min; in the series on SHRSP [2] (setting [9]) it was 242 ± 29 min. Further, the “Spontaneous manifestation of cerebral apoplexy (in words)” value in the series on SHRSP [3] (10 SHRSP fed without sodium chloride loading) is “can prevent manifestation of cerebral apoplexy”. In addition, the “Incidence of cerebral apoplexy (number of apoplectic cases/number of animals used)” value in the series with SHRSP [3] (Experiment 1, sodium chloride loading +, 35 mg/kg/day in diet, 40 days, 8-week-old male SHRSP) was 7/12; in the series on SHRSP [3] (Experiment 2, no sodium chloride loading, 35 mg/kg/day, 45 days, 14-week-old male SHRSP) it was 5/10. The “Cerebral apoplexy compared with the control group (in words)” value with SHRSP [3] (SHRSP fed with high sodium chloride level, compound in admixture with the diet, 12 male SHRSP) was “significantly (P<0.05 by Wilcoxon's two sample test) inhibited”. For the same compound, the Body weight loss in the series with SHRSP [4] was determined as 8 ± 3%. Further, the “Severity of symptoms (total score of group; 0 to 5 per individual)” value in the series on SHRSP [4] was 20 ± 3. Besides, the Blood pressure with SHRSP [5] (day 0) is listed as 175 ± 3 mmHg; in the series with SHRSP [5] (day 7) it was 188 ± 4 mmHg; in the series on SHRSP [5] (day 14) it was 199 ± 3 mmHg; with SHRSP [5] (day 21), 208 ± 4 mmHg. Also, the Body weight in the series on normal rat (day 0) was found to be 224 ± 4 g; in the series on normal rat (day 14), 269 ± 8 g; with normal rat (day 21), 274 ± 13 g. Moreover, the Urine protein was 47 ± 1 mg/day/250 g body weight with normal rat (day 0), 225 ± 38 mg/day/250 g body weight with normal rat (day 14) and 367 ± 68 mg/day/250 g body weight in the series with normal rat (day 21). Also, the “Heart lactic acid on wet weight basis” value in the series with normal rats worked out at 1.65 ± 0.1 µmol/g; in [6], 1.9 ± 0.12 µmol/g. Also, the results for the QRS width (in the series on normal rats; in series [6]) were 4.6 ± 0.4 ms and 2.9 ± 0.2 ms, respectively. In addition, in [7], the “Abnormalities (general condition, urinalysis, blood examination, histopathology)” value is “could not reveal any abnormalities ascribable to the administration”.
